Data from patent US6242478A, “Five member ring sulfenate esters and thiosulfinate esters” (Wake Forest University, priority 1999, dated 2001).
Where two headings read alike, the source gives them in different places.

Legend:
[1] = tested on: fresh human monocyte/macrophage cultures; details: toxicity; cited from earlier work
NCp7 [2] = biological target: T1, NCp7 (Human immunodeficiency virus type 1 group M subtype B, UniProt P04591); details: DFT calculation (Maynard et al., 1998); cited from earlier work
T1 construct: HIV-1 nucleocapsid protein (NCp7)

HIV-1RF [3] = details: cited from earlier work; for EC50: CEM-SS cells, HIV-1RF, read-out: XTT assay EC50; for activity against HIV-1 in XTT-based cytoprotection assay: in words
NCp7 protein = details: cited from earlier work; for ejection of zinc from NCp7: in words; for TSQ NCp7 Assay: unit not given
CEM-SS cells [4] = details: toxicity, CEM-SS cells; read-out: XTT assay IC50; cited from earlier work
HIV-1ADA = details: fresh human monocyte/macrophage cultures, cited from earlier work; for EC50: HIV-1ADA; for activity against replication of monocytotropic HIV-1ADA: in words
NCp7 [5] = biological target: T2, NCp7 (Human immunodeficiency virus type 1 group M subtype B, UniProt P12493); experiment: NCp7 Trp37 fluorescence decrease assay; assay type: biochemical, HIV-1; details: for NCp7 Trp37 Assay, % Decrease RFU/30 min, without GSH: 50 μM
T2 construct: HIV-1 nucleocapsid protein (NCp7)

HIV-1RF [6] = experiment: XTT cytoprotection assay, anti-HIV-1 activity (EC50) in CEM-SS cells; assay type: cell-based
Description: (§1) Both the XTT and monocyte/macrophage assays were used because infection of monocyte/macrophage cultures is thought to resemble infection of the nonproliferating pool of cells in vivo, while the parameters for the CEM-SS cells (XTT assay) are thought to reflect more closely the parameters for highly proliferating cells such as bone marrow and intestinal cells. The CEM-SS cell (XTT) assay is a more sensitive indicator of toxicity and all compounds disclosed herein have been screened in this assay.
Based on these preliminary screens, it is contemplated that an aromatic or large substituent at R1 (compare entries 1 & 4, 9 & 10) and a small substituent at R2 (compare entries 1, 2, & 3; 7, 8, & 9) may be best for anti-HIV-1 activity. Sulfur heterocycles containing more than 6 atoms don't appear to be active (entries 13 & 14). […] As observed for 8 previously (Rice et al., 1997), anti-HIV-1 activity and toxicity of 53a went down when treated with 2 equivalents of GSH (entry 6).

CEM-SS cells [7] = experiment: XTT assay, toxicity (IC50) in CEM-SS cells; assay type: cell-based; details: for IC50: Homo sapiens, CEM-SS, Table 3, read-out: XTT Anti-HIV-1 Assay IC50
Description: as §1

Ferritin H mRNA = Ferritin H mRNA induction, Northern blot; assay type: cell-based, mouse; details: 80 μM, 24 hours
Protocol: (§2) BNL.CL2 cells were treated with Oltipraz, compound 121 described above, and compound 123 described above. All compounds were applied to the cells at 100 micromolar concentration for 24 hours.
(§3) Cells were exposed to compounds at a final concentration of 80 μM for 24 hours. RNA was isolated and analyzed by Northern blotting for the expression of the indicated genes. Control cells were incubated with vehicle alone (0.4% DMSO).
(§4) Northern blot: Treatment of BNL.CL2 cells with 100 μM Oltipraz, ALH-556, and ALH-562, ALH-561, ED 13.4, ED 14.6, DCF 070, ALH-490
(§5) BNL.CL2 cells (normal mouse embryonic liver cell line) were plated at ~3×10^5 cells/ml, grown for 16-24 hours, and treated with 0 μM and 100 μM Oltipraz, ALH-556 (121), and ALH-562 (123) for 24 hours. All three compounds were dissolved in DMSO and the final DMSO concentration present in all treatment conditions was 0.2%. BNL.CL2 cells were harvested by trypsinization and total RNA was isolated using the Trizol reagent (Gibco BRL) according to the manufacturer's procedures. 15 μg of RNA were run on a 1.1% agarose/6.6% formaldehyde gel and transferred overnight onto nitrocellulose membranes by capillary transfer using 20×SSC as transfer buffer. Subsequent to RNA transfer, the nitrocellulose membrane was baked at 80° C. for 2 hours. RNA was analyzed using a radiolabeled mouse ferritin H and human GST-α c-DNA. A human β-actin probe was used as an internal standard. The c-DNA probes were labeled with [α^32 P]dCTP by a random prime labeling. Hybridization of the c-DNA probes to the nitrocellulose membrane was performed at 68° C. for 60 minutes using the Quick-Hyb solution (Stratagene). Membranes were subjected to phosphoimager analysis after hybridization.

[8] = tested on: GST alpha mRNA in BNL.CL2 cells; experiment: GST alpha mRNA induction, Northern blot; assay type: cell-based, mouse; details: for GST α induction (mRNA): 80 μM, Northern blot
Protocol: as §2, §3, §4, §5

[9] = tested on: DT-diaphorase (NQO1) mRNA; experiment: NQO1 mRNA induction, Northern blot; assay type: cell-based, mouse; details: 80 μM, 24 hours
Protocol: as §2, §3, §4, §5

GST [10] = details: rats; cited from earlier work
GST [11] = details: mice; cited from earlier work
NCp7 [12] = biological target: T2, NCp7; details: 50 μM, reference compounds; cited from earlier work
[13] = tested on: glutathione-S-transferase (GST); details: cited from earlier work
[14] = Human immunodeficiency virus 1, CEM-SS, Table 3, read-out: XTT Anti-HIV-1 Assay EC50
[15] = Human immunodeficiency virus 1, CEM-SS, read-out: Maximum cytoprotection

## O=S1(=O)C[C@@H](O)[C@H](O)CS1 (relative stereo) [compound 9]
[1]
  IC50: > 100 µM
NCp7 [2]
  ratio of electronegativity to hardness (.chi.^2 /.eta.): 0.2260
HIV-1RF [3]
  EC50: 13 µM
  activity against HIV-1 in XTT-based cytoprotection assay: active
NCp7 protein
  ejection of zinc from NCp7: promoted ejection of zinc
  TSQ NCp7 Assay: 20
CEM-SS cells [4]
  IC50: 135 µM
HIV-1ADA
  EC50: 9.1 µM
  activity against replication of monocytotropic HIV-1ADA: active

## NS(=O)(=O)c1ccc(NC(=O)c2ccccc2SSc2ccccc2C(=O)Nc2ccc(S(N)(=O)=O)cc2)cc1 [3, R'=C(O)NH-phenyl-SO2 NH2]
NCp7 [2]
  ratio of electronegativity to hardness (.chi.^2 /.eta.): 0.2935

## CC(=O)NS(=O)(=O)c1ccc(NC(=O)c2ccccc2SSc2ccccc2C(=O)Nc2ccc(S(=O)(=O)NC(C)=O)cc2)cc1 [3, R'=C(O)NH-phenyl-SO2 NHC(O)CH3]
NCp7 [2]
  ratio of electronegativity to hardness (.chi.^2 /.eta.): 0.3098

## COC(=O)C1=C(c2ccccc2)[S+]([O-])SC1 (centres unmarked) [53a]
NCp7 [5]; 50 μM with GSH
  NCp7 Trp37 Assay, % Decrease RFU/30 min, with GSH: 16.7 % Decrease RFU/30 min
NCp7 [5]
  NCp7 Trp37 Assay, % Decrease RFU/30 min, without GSH: 13.5 % Decrease RFU/30 min
NCp7 [5]; GSH, in words
  zinc ejecting ability with GSH: little effected by GSH
HIV-1RF [6]; 2 equivalents of GSH, in words
  anti-HIV-1 activity with GSH: went down
HIV-1RF [6]; Human immunodeficiency virus 1, CEM-SS, + GSH, 2 equivalents, read-out: XTT Anti-HIV-1 Assay EC50 with GSH
  EC50: 17.3 µM
HIV-1RF [6]; [14]
  EC50: 6 µM
HIV-1RF [6]; in words
  EC50 relative to the best dithiane (8, NSC 624151): below that of the best dithiane
  cytoprotection / anti-HIV-1 activity: possess anti-HIV-1 activity
CEM-SS cells [7]; 2 equivalents of GSH, in words
  toxicity with GSH: went down
CEM-SS cells [7]
  IC50: 18 µM

## CCOC(=O)C1=C(c2ccccc2)[S+]([O-])SC1 (centres unmarked) [53b]
NCp7 [5]
  NCp7 Trp37 Assay, % Decrease RFU/30 min, without GSH: 6.5 % Decrease RFU/30 min
HIV-1RF [6]; [15]
  Emax at 10 µM: 31.6%
CEM-SS cells [7]
  IC50: 45.7 µM

## CC(C)OC(=O)C1=C(c2ccccc2)[S+]([O-])SC1 (centres unmarked) [53c]
NCp7 [5]
  NCp7 Trp37 Assay, % Decrease RFU/30 min, without GSH: 17.1 % Decrease RFU/30 min
HIV-1RF [6]; [15]
  Emax at 10 µM: 43.3%
CEM-SS cells [7]
  IC50: 15.2 µM

## COC(=O)C1=C(C)[S+]([O-])SC1 (centres unmarked) [53d]
NCp7 [5]
  NCp7 Trp37 Assay, % Decrease RFU/30 min, without GSH: 14.3 % Decrease RFU/30 min
HIV-1RF [6]; [15]
  Emax at 10 µM: 41.4%
CEM-SS cells [7]
  IC50: 16.9 µM

## CC1=C(C(=O)OC(C)C)CS[S+]1[O-] (centres unmarked) [53e]
NCp7 [5]
  NCp7 Trp37 Assay, % Decrease RFU/30 min, without GSH: 10.4 % Decrease RFU/30 min
HIV-1RF [6]; [15]
  Emax at 10 µM: 40%
CEM-SS cells [7]
  IC50: 18.4 µM

## CC1=C(c2ccccc2)S(=O)OC1 (centres unmarked) [53f]
NCp7 [5]
  NCp7 Trp37 Assay, % Decrease RFU/30 min, without GSH: 0 % Decrease RFU/30 min
HIV-1RF [6]; [14]
  EC50: 5.9 µM
HIV-1RF [6]; in words
  EC50 relative to the best dithiane (8, NSC 624151): below that of the best dithiane
  cytoprotection / anti-HIV-1 activity: possess anti-HIV-1 activity
CEM-SS cells [7]
  IC50: 16.9 µM

## COC(=O)C1=C(c2ccccc2)S(=O)OC1 (centres unmarked) [53h]
NCp7 [5]
  NCp7 Trp37 Assay, % Decrease RFU/30 min, without GSH: 0 % Decrease RFU/30 min
HIV-1RF [6]; [15]
  Emax at 10 µM: 29%
CEM-SS cells [7]
  IC50: 22.5 µM

## CCOC(=O)C1=C(c2ccccc2)S(=O)OC1 (centres unmarked) [(8) 53g]
NCp7 [5]
  NCp7 Trp37 Assay, % Decrease RFU/30 min, without GSH: 26 % Decrease RFU/30 min
HIV-1RF [6]; Human immunodeficiency virus 1, CEM-SS, @ 100 μM, read-out: Maximum cytoprotection
  Emax at 100 µM: 12%
CEM-SS cells [7]
  IC50: 213 µM

## COC(=O)C1=C(C)S(=O)OC1 (centres unmarked) [(10) 53g]
NCp7 [5]
  NCp7 Trp37 Assay, % Decrease RFU/30 min, without GSH: 0.2 % Decrease RFU/30 min
HIV-1RF [6]; Human immunodeficiency virus 1, CEM-SS, @ 3.2 μM, read-out: Maximum cytoprotection
  Emax at 3.2 µM: 32.6%
CEM-SS cells [7]
  IC50: 5.3 µM

## O=S1(=O)OCC=C1c1ccccc1 [ALH-490]
Ferritin H mRNA
  Ferritin H induction (mRNA): +
[8]; 24 hours
  GST α induction (mRNA): +
[9]
  NQO1 induction (mRNA): +

## COC(=O)C1=C(c2ccccc2)[S+]([O-])SC1 (centres unmarked) [DCF 070]
Ferritin H mRNA
  Ferritin H induction (mRNA): +
[8]; 24 hours
  GST α induction (mRNA): +
[9]
  NQO1 induction (mRNA): +

## COC(=O)C1=C(C2=CCCCC2)[S+]([O-])SC1 (centres unmarked) [ED 13.4]
Ferritin H mRNA
  Ferritin H induction (mRNA): +
[8]; 24 hours
  GST α induction (mRNA): +
[9]
  NQO1 induction (mRNA): +

## CC1=C(C2=CCCCC2)[S+]([O-])SC1 (centres unmarked) [ED 14.6]
Ferritin H mRNA
  Ferritin H induction (mRNA): +
[8]; 24 hours
  GST α induction (mRNA): +
[9]
  NQO1 induction (mRNA): +

## NC(=O)c1cccc(N=O)c1 [NOBA, 3-nitrosobenzamide]
NCp7 protein
  ejection of zinc from NCp7: reacted with the zinc fingers of NCp7 causing zinc ejection

## C=CCS[S+]([O-])CC=C (centres unmarked) [allicin]
GST [10]
  elevation of GST levels: elevate levels of GST
GST [11]
  elevation of GST levels: elevate levels of GST

## O=S1(=O)CC(CO)(CO)CS1 [compound 6]
HIV-1RF [3]
  EC50: 34 µM
  activity against HIV-1 in XTT-based cytoprotection assay: active
NCp7 protein
  ejection of zinc from NCp7: promoted ejection of zinc
CEM-SS cells [4]
  IC50: 200 µM
HIV-1ADA
  activity against replication of monocytotropic HIV-1ADA: active

## CC(=O)OCC1(COC(C)=O)CSS(=O)(=O)C1 [compound 7]
[1]
  IC50: > 100 µM
NCp7 [12]
  NCp7 Trp37 Assay, % Decrease RFU/30 min, without GSH: 18 % Decrease RFU/30 min
HIV-1RF [3]
  EC50: 9.8 µM
  activity against HIV-1 in XTT-based cytoprotection assay: active
NCp7 protein
  ejection of zinc from NCp7: promoted ejection of zinc
  TSQ NCp7 Assay: 18
CEM-SS cells [4]
  IC50: 30 µM
HIV-1ADA
  EC50: 21 µM
  activity against replication of monocytotropic HIV-1ADA: active

## COc1ccc(C2=C(C)COS2=O)cc1 (centres unmarked) [compound 121, 4-Methyl-5-(4-methoxy)phenyl-1,2-oxathiol-4-en-1-yl Oxide]
[8]; Mus musculus, BNL CL.2, BNL.CL2 cells, 100 micromolar, 24 hours, read-out: increase in GST alpha mRNA levels
  activation at 100 µM: 300%
[8]; in words
  inducing activity (GST, NQO1 and Ferritin H): high levels of inducing activity

## N[C@@H](CCC(=O)N[C@@H](CS)C(=O)NCC(=O)O)C(=O)O [glutathione]
[13]; bound to GST
  pKa of the thiol: ~ 6.5
[13]; without enzyme binding
  pKa of the thiol: 9.0

## CC(C)(C)c1cc(O)ccc1O [t-BHQ]
Ferritin H mRNA
  Ferritin H induction (mRNA): +
[8]; 24 hours
  GST α induction (mRNA): +
[9]
  NQO1 induction (mRNA): +
